The text below walks through data of ChEMBL document CHEMBL1157185, “Design and synthesis of benzofuranic derivatives as new ligands at the melatonin-binding site MT3” (Bioorg Med Chem, 2008).

For test [1], the target named is Melatonin receptor type 1A (Homo sapiens, UniProt P48039). As to the kind of experiment: Displacement of 2-[125I]iodomelatonin from human MT1 receptor expressed in HEK293 cells. It is filed as cell-based.
In test [2] the target is T1, Melatonin receptor type 1B (Homo sapiens, UniProt P49286).
T1 sequence (P49286 whole entry): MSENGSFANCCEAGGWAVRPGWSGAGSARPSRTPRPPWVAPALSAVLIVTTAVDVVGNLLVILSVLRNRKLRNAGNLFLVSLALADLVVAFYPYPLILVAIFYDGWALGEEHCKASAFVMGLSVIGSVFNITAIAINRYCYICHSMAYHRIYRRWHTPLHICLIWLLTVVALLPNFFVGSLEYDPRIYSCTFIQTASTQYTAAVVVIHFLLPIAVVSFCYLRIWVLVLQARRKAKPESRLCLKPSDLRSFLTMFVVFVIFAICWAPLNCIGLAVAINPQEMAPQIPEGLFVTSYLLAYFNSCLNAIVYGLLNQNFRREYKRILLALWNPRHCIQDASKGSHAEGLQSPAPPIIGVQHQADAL
As to the kind of experiment: Displacement of 2-[125I]iodomelatonin from human MT2 receptor expressed in HEK293 cells. Format: cell-based.

The nature of test [3]: Inhibition of MT3 melatonin binding site from hamster brain membrane. Set-up: species or system Cricetinae.
Test [4] can be described thus: Selectivity ratio, IC50 for human MT2 melatonin receptor to IC50 for hamster MT3 melatonin binding site.
Test [5] in a line: Selectivity ratio, IC50 for human MT1 melatonin receptor to IC50 for hamster MT3 melatonin binding site.

The structures appear in SMILES notation.

By IC50 is commonly meant the concentration that inhibits the measured activity by half. High values mean weaker potency in that assay, low ones greater potency in that assay. The term Ki denotes a dissociation constant, usually derived from enzyme kinetics or from competition with a known ligand. A higher Ki goes with lower affinity.

Melatonin receptor type 1A, sequence (P48039 whole entry): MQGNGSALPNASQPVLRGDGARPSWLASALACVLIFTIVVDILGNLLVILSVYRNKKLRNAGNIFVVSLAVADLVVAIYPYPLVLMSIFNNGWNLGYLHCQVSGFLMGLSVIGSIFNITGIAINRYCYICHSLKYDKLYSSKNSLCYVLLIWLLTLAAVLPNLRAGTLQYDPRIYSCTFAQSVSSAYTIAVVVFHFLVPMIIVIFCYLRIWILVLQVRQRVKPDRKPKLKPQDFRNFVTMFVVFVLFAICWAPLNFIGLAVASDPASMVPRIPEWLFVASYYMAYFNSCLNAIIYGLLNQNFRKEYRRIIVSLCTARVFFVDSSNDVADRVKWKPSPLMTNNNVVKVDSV

On to `NC(=O)c1ccc2occ(CCNC(=O)c3ccco3)c2c1`, for which the results for the IC50 in test [1], in test [2] and in test [3] were above 10 µM, above 10 µM and 67 nM, respectively. The Ratio IC50 in test [4] and in test [5] was above 149 in each case.

Take `COc1cc2nc(N3CCN(C(=O)c4ccco4)CC3)nc(N)c2cc1OC` [PRAZOSIN]: the IC50 in test [3] is 7.8 nM.

With `COC(=O)c1ccc2occ(CCNC(C)=O)c2c1`, in test [3], the IC50 was 14 nM.

Turning to `CNC(=O)c1ccc2occ(CCNC(C)=O)c2c1`, the results for the IC50 in test [1], in test [2] and in test [3] were 0.189 µM, above 1 µM and 12 nM, respectively. Moreover, the Ratio IC50 was above 83 in test [4] and 16 in test [5].

For `C=CCC(=O)NCCc1coc2ccc(NC(=O)OC)cc12`, the IC50 was determined as 2.69 µM in test [1], 0.56 µM in test [2] and 11 nM in test [3]. Moreover, the results for the Ratio IC50 in test [4] and in test [5] were 51 and 244, respectively.

Take `COC(=O)Nc1ccc2occ(CCNC(=O)C3CCCC3)c2c1`: the IC50 in test [1] and in test [2] was 5.32 µM each time.

With `CNC(=O)c1ccc2occ(CCNC(=O)C3CCCC3)c2c1`, the IC50 in test [1] and in test [2] was above 10 µM throughout.

Consider `COc1cc2c(cc1OC)-c1c(c3cc(O)ccc3n1C)C2=O`, for which affinity in test [3] was put at a Ki of 0.19 nM.

Turning to `COC(=O)Nc1ccc2occ(CCNC(C)=O)c2c1`, the IC50 in test [3] turned out to be 16 nM.

Turning to `CNC(=O)c1ccc2occ(CCNC(=O)C3CC3)c2c1`, the values for the IC50 in test [1], in test [2] and in test [3] were 1.22 µM, above 10 µM and 41 nM, respectively. In addition, the Ratio IC50 in test [4] is above 244; in test [5], above 29.

Regarding `COC(=O)Nc1ccc2[nH]cc(CCNC(C)=O)c2c1`, the values for the IC50 in test [1] and in test [2] were 1 µM and 4 µM, respectively.

With `COC(=O)Nc1ccc2occ(CCNC(=O)c3ccco3)c2c1`, the 50% inhibitory concentration (IC50) in test [1] was above 10 µM; in test [2] it was above 10 µM; in test [3], 56 nM. Also, the Ratio IC50 in test [4] and in test [5] was above 178 each time.

For `COC(=O)c1ccc2occ(CCNC(=O)C3CCCC3)c2c1`, the IC50 amounted to 3.88 µM in test [1], 0.389 µM in test [2] and 18 nM in test [3]. The Ratio IC50 was 21.6 in test [4] and 215 in test [5].

The compound `COC(=O)c1ccc2occ(CCNC(=O)C(C)C)c2c1` registered an IC50 in test [3] of 65 nM.

With `COC(=O)c1ccc2occ(CCNC(=O)c3ccco3)c2c1`, the IC50 in test [1] is above 10 µM; in test [2], above 10 µM; in test [3] it was 53 nM. Besides, the Ratio IC50 in test [4] and in test [5] was above 188 in each case.

As to `CC(=O)NCCc1coc2ccc(C(N)=O)cc12`, the IC50 is above 10 µM in test [1], 1 µM in test [2] and 82 nM in test [3]. For the same compound, the Ratio IC50 is 12 in test [4] and above 122 in test [5].

For the compound `COC(=O)Nc1ccc2occ(CCNC(=O)C3CC3)c2c1`, the IC50 in test [1] amounted to 8.18 µM; in test [2] it was 5.9 µM; in test [3] it was 24 nM. In addition, the Ratio IC50 in test [4] amounted to 245; in test [5], 340.

As to `COC(=O)Nc1ccc2occ(CCNC(=O)C(C)C)c2c1`, the IC50 was 5.35 µM in test [1], 4.58 µM in test [2] and 23 nM in test [3]. In addition, the Ratio IC50 in test [4] is 199; in test [5], 232.

On to `CC(=O)NCCc1coc2ccc(NC(=O)C(F)(F)F)cc12`, for which the IC50 in test [1] is above 10 µM; in test [2], 2 µM.

`COc1ccc2occ(CCNC(C)=O)c2c1` returned an IC50 in test [3] of 64 nM.

`COc1ccc2c(c(CCNC(C)=O)c(I)n2C)c1[N+](=O)[O-]` came in with a Ki in test [3] of 0.3 nM.
